Results published in patent US6914045B2, “Glycopeptide antibiotics” (Wyeth Holdings Corporation, priority 2001, dated 2005).
In brackets after ≈: the same amount, converted by molar mass.

How the values were obtained:
[1] = test system: Streptococcus sp.; experiment: in vitro antibacterial evaluation, MIC by broth dilution; format: cell-based; details: broth dilution, 18 hours at 35° C.
How it was run: (§1)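 Test organisms, which included recent clinical isolates resistant to methicillin, penicillin and/or vancomycin, were inoculated at 5×10^5 CFU/mL into Muller-Hinton II […] containing antibiotic at 64-0.06 μg/mL. Minimum inhibitory concentrations were then read as the lowest level inhibiting growth.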

[2] = test system: Escherichia coli; experiment: as above; format: cell-based; details: 18 hours at 35° C.
How it was run: as §1

[3] = test system: Staphylococcus sp.; experiment: as above; format: cell-based; details: broth dilution, 18 hours at 35° C.
How it was run: as §1

[4] = test system: Enterococcus sp.; experiment: as above; format: cell-based; details: broth dilution, 18 hours at 35° C.
How it was run: as §1

[5] = test system: Enterococcus faecalis (GC 6189); experiment: acute lethal infection in mice; format: in vivo; details: female CD-1 mice, intraperitoneal challenge, intravenous 30 min. after infection, 7 day survival
How it was run: (§2)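 ED50 from 7 day survival ratios pooled over 3 separate tests. Female CD-1 mice, 20+/−2 gm, ip bacterial challenge (trypticase soy broth or hog gastric mucin) lethal to untreated controls in 24-48 hr; iv dosing 30 min after infection in saline or 5% dextrose, n=5/dose.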

[6] = test system: Staphylococcus aureus-SMITH (GC 4543); experiment: acute lethal infection in mice; format: in vivo; details: acute lethal infection, female CD-1 mice, intraperitoneal challenge, intravenous 30 min. after infection, 7 day survival
How it was run: as §2

## CC(c1ccccc1)C1NC(=O)CNC(=O)C(CO)NC(=O)C(C(O)C2CNC(=N)N2C2OC(CO)C(O)C(O)C2O)NC(=O)C(C(O)C2CNC(=N)N2)NC(=O)C(Cc2ccc(OC3OC(CO)C(OC4OC5COC(C6CC=CCC6)OC5C(O)C4O)C(O)C3O)cc2)NC1=O (stereo not drawn) [Example 115, Cyclo[glycyl-β-methylphenylalanyl-O-[4-O-[4,6-O-(cyclohex-3-en-1-ylmethylene)hexopyranosyl]hexopyranosyl]tyrosyl-3-(2-iminoimidazolidin-4-yl)seryl-3-(3-hexopyranosyl-2-iminoimidazolidin-4-yl)serylseryl]]
[1]; Streptococcus agalactiae (GC 4564)
  MIC Streptococcus agalactiae (GC 4564): 0.25 µg/mL (≈ 0.18 µM)
[1]; Streptococcus pneumoniae (ATCC 6301)
  MIC Streptococcus pneumoniae (ATCC 6301): <0.06 µg/mL
[1]; Streptococcus pneumoniae (GC 1894)
  MIC Streptococcus pneumoniae (GC 1894): <0.06 µg/mL
[1]; Streptococcus pneumoniae (GC 4565)
  MIC Streptococcus pneumoniae (GC 4565): 0.12 µg/mL (≈ 0.0865 µM)
[1]; Streptococcus pyogenes (GC 4563)
  MIC Streptococcus pyogenes (GC 4563): 0.25 µg/mL (≈ 0.18 µM)
[1]; strain ATCC 6301
  MIC Streptococcus pneumoniae (ATCC 6301): <0.06 µg/mL
[1]; strain GC 1894
  MIC Streptococcus pneumoniae (GC 1894): <0.06 µg/mL
[1]; strain GC 4563
  MIC Streptococcus pyogenes (GC 4563): 0.25 µg/mL (≈ 0.18 µM)
[1]; strain GC 4564
  MIC Streptococcus agalactiae (GC 4564): 0.25 µg/mL (≈ 0.18 µM)
[1]; strain GC 4565
  MIC Streptococcus pneumoniae (GC 4565): 0.12 µg/mL (≈ 0.0865 µM)
[2]; strain ATCC 25922
  MIC Escherichia coli (ATCC 25922): 32 µg/mL (≈ 23.1 µM)
[2]; strain GC 4559
  MIC Escherichia coli (GC 4559): 64 µg/mL (≈ 46.1 µM)
[2]; strain GC 4560
  MIC Escherichia coli (GC 4560): 1 µg/mL (≈ 0.721 µM)
[3]
  MIC Coagulase Negative Staphylococcus (GC 4547): 1 µg/mL (≈ 0.721 µM)
  MIC Coagulase Negative Staphylococcus (GC 4548): 0.5 µg/mL (≈ 0.36 µM)
  MIC Coagulase Negative Staphylococcus (GC 4549): 1 µg/mL (≈ 0.721 µM)
  MIC Coagulase Negative Staphylococcus (GC 4551): 1 µg/mL (≈ 0.721 µM)
  MIC Coagulase Negative Staphylococcus (GC 6257): 0.5 µg/mL (≈ 0.36 µM)
  MIC Staphylococcus aureus (ATCC 29213): 1 µg/mL (≈ 0.721 µM)
  MIC Staphylococcus aureus (GC 1131): 1 µg/mL (≈ 0.721 µM)
  MIC Staphylococcus aureus (GC 3051): 1 µg/mL (≈ 0.721 µM)
  MIC Staphylococcus aureus (GC 3053): 1 µg/mL (≈ 0.721 µM)
  MIC Staphylococcus aureus (GC 4541): 1 µg/mL (≈ 0.721 µM)
  MIC Staphylococcus aureus (GC 4542): 0.5 µg/mL (≈ 0.36 µM)
  MIC Staphylococcus aureus (GC 4544): 1 µg/mL (≈ 0.721 µM)
  MIC Staphylococcus aureus (GC 4545): 0.5 µg/mL (≈ 0.36 µM)
  MIC Staphylococcus aureus-SMITH (GC 4543): 1 µg/mL (≈ 0.721 µM)
  MIC Staphylococcus haemolyticus (GC 4546): 0.5 µg/mL (≈ 0.36 µM)
[3]; inoculum 5×10^5 CFU/mL, strain GC 1131
  MIC Staphylococcus aureus (GC 1131): 1 µg/mL (≈ 0.721 µM)
[3]; strain ATCC 29213
  MIC Staphylococcus aureus (ATCC 29213): 1 µg/mL (≈ 0.721 µM)
[3]; strain GC 3051
  MIC Staphylococcus aureus (GC 3051): 1 µg/mL (≈ 0.721 µM)
[3]; strain GC 3053
  MIC Staphylococcus aureus (GC 3053): 1 µg/mL (≈ 0.721 µM)
[3]; strain GC 4541
  MIC Staphylococcus aureus (GC 4541): 1 µg/mL (≈ 0.721 µM)
[3]; strain GC 4542
  MIC Staphylococcus aureus (GC 4542): 0.5 µg/mL (≈ 0.36 µM)
[3]; strain GC 4544
  MIC Staphylococcus aureus (GC 4544): 1 µg/mL (≈ 0.721 µM)
[3]; strain GC 4545
  MIC Staphylococcus aureus (GC 4545): 0.5 µg/mL (≈ 0.36 µM)
[3]; strain GC 4546
  MIC Staphylococcus haemolyticus (GC 4546): 0.5 µg/mL (≈ 0.36 µM)
[3]; strain GC 4547
  MIC Coagulase Negative Staphylococcus (GC 4547): 1 µg/mL (≈ 0.721 µM)
[3]; strain GC 4548
  MIC Coagulase Negative Staphylococcus (GC 4548): 0.5 µg/mL (≈ 0.36 µM)
[3]; strain GC 4549
  MIC Coagulase Negative Staphylococcus (GC 4549): 1 µg/mL (≈ 0.721 µM)
[3]; strain GC 4551
  MIC Coagulase Negative Staphylococcus (GC 4551): 1 µg/mL (≈ 0.721 µM)
[3]; strain GC 6257
  MIC Coagulase Negative Staphylococcus (GC 6257): 0.5 µg/mL (≈ 0.36 µM)
[3]; strain SMITH GC 4543
  MIC Staphylococcus aureus-SMITH (GC 4543): 1 µg/mL (≈ 0.721 µM)
[4]; Enterococcus avium (GC 4558)
  MIC Enterococcus avium (GC 4558): 2 µg/mL (≈ 1.44 µM)
[4]; Enterococcus faecalis (ATCC 29212)
  MIC Enterococcus faecalis (ATCC 29212): 2 µg/mL (≈ 1.44 µM)
[4]; Enterococcus faecalis (GC 2242)
  MIC Enterococcus faecalis (GC 2242): 2 µg/mL (≈ 1.44 µM)
[4]; Enterococcus faecalis (GC 2691)
  MIC Enterococcus faecalis (GC 2691): 2 µg/mL (≈ 1.44 µM)
[4]; Enterococcus faecalis (GC 3059)
  MIC Enterococcus faecalis (GC 3059): 2 µg/mL (≈ 1.44 µM)
[4]; Enterococcus faecalis (GC 4552)
  MIC Enterococcus faecalis (GC 4552): 2 µg/mL (≈ 1.44 µM)
[4]; Enterococcus faecalis (GC 4553)
  MIC Enterococcus faecalis (GC 4553): 4 µg/mL (≈ 2.88 µM)
[4]; Enterococcus faecalis (GC 4554)
  MIC Enterococcus faecalis (GC 4554): 2 µg/mL (≈ 1.44 µM)
[4]; Enterococcus faecalis (GC 6189)
  MIC Enterococcus faecalis (GC 6189): 2 µg/mL (≈ 1.44 µM)
[4]; Enterococcus faecium (GC 2243)
  MIC Enterococcus faecium (GC 2243): 2 µg/mL (≈ 1.44 µM)
[4]; Enterococcus faecium (GC 4556)
  MIC Enterococcus faecium (GC 4556): 2 µg/mL (≈ 1.44 µM)
[4]; Enterococcus faecium (GC 4557)
  MIC Enterococcus faecium (GC 4557): 2 µg/mL (≈ 1.44 µM)
[4]; strain ATCC 29212
  MIC Enterococcus faecalis (ATCC 29212): 2 µg/mL (≈ 1.44 µM)
[4]; strain GC 2242
  MIC Enterococcus faecalis (GC 2242): 2 µg/mL (≈ 1.44 µM)
[4]; strain GC 2243
  MIC Enterococcus faecium (GC 2243): 2 µg/mL (≈ 1.44 µM)
[4]; strain GC 2691
  MIC Enterococcus faecalis (GC 2691): 2 µg/mL (≈ 1.44 µM)
[4]; strain GC 3059
  MIC Enterococcus faecalis (GC 3059): 2 µg/mL (≈ 1.44 µM)
[4]; strain GC 4552
  MIC Enterococcus faecalis (GC 4552): 2 µg/mL (≈ 1.44 µM)
[4]; strain GC 4553
  MIC Enterococcus faecalis (GC 4553): 4 µg/mL (≈ 2.88 µM)
[4]; strain GC 4554
  MIC Enterococcus faecalis (GC 4554): 2 µg/mL (≈ 1.44 µM)
[4]; strain GC 4556
  MIC Enterococcus faecium (GC 4556): 2 µg/mL (≈ 1.44 µM)
[4]; strain GC 4557
  MIC Enterococcus faecium (GC 4557): 2 µg/mL (≈ 1.44 µM)
[4]; strain GC 4558
  MIC Enterococcus avium (GC 4558): 2 µg/mL (≈ 1.44 µM)
[4]; strain GC 6189
  MIC Enterococcus faecalis (GC 6189): 2 µg/mL (≈ 1.44 µM)
[5]
  median effective dose (ED50), Enterococcus faecalis (GC 6189): 0.36 mg/kg
[6]
  median effective dose (ED50), Staphylococcus aureus-SMITH (GC 4543): 0.23 mg/kg
